Data: US20130115257A1, “COMPOSITIONS AND METHODS FOR REMOVAL OR DESTRUCTION OF AMYLOID FIBRIL OR AMYLOID ADHESIN COMPRISING AGGREGATES” (KATHOLIEKE UNIVERSITEIT LEUVEN, priority 2010, published 2013)
Entries after “also recorded” stand apart in the source; their conditions may differ. Structures can show the parent of a compound that is named as a salt.

Tests used:
[1] = system: Congo Red-amyloid fibril complex (insulin fibrils); test: AFM of Congo Red-amyloid fibril complex after incubation with metal ions or colloids (fibril disintegration); details: CR-stained insulin fibrils, 5 mmol/L silver ions, 15 minutes; for disintegration of the dye-amyloid fibers (AFM image): rinsed and dried
Protocol: (§1) Amyloid fibrils from the insulin hormone were obtained by dissolving insulin (3.5 mmol/L) in water adjusted to pH 2 with HCl and heated to 70° C. for 2 hours. Samples were diluted to a concentration of 7 μmol/L at room temperature and transferred to a piranha (4:1, H2SO4:H2O2) cleaned naturally oxidized silicon wafer. After 15 minutes of incubation the silicon surface was rinsed with water. The amyloid fibers on the silicon surface are then incubated with a 140 μmol/L solution of CR in water during 2 hours and successively rinsed with water.
The predominant particles are soluble dimers and higher order aggregates with the hydrophobic regions sequestered from the aqueous environment (D. Watson et al., Neurological Research 27, 869-881 (2005)). The soluble oligomeric amyloid-beta peptides are the principal constituent of amyloid deposits such as plaques and intraneuronal tangles.
The positively charged metal ions bind to the negatively charged sulfonate groups of the dye and interfere with the electrostatic bond between the negatively charged group of the CR molecule and the basic amino acid side chain of the fibril. This way the dye-peptide bond is disrupted at the monomer level, which causes the disintegration of the fibril. Our in vitro study points out that neurodegenerative disorders can be treated by negatively charged molecules, like CR which intercalate between the amyloid β-strands and induce a destabilization of the CR-fibril complex when metallic ions such as silver ions are introduced.

[2] = water; organic solvents such as ethanol; cited from earlier work
[3] = system: amyloid fibrils from insulin; test: Atomic force microscopy of insulin amyloid fibrils incubated with Congo red; assay type: binding; details: 140 μmol/L CR in water, 2 hours, fibrils on silicon surface
Protocol: as §1

insulin fibrils = test: Fluorescence microscopy of dye-amyloid fibril complexes; assay type: binding; details: insulin fibrils incubated with CR
From the text: The dye-amyloid fibril complexes were also imaged with fluorescence microscopy, as CR is a fluorophore. […] Bright contrast in the fluorescence images corresponds to the presence of the fluorophore on the insulin fibrils, which themselves are not fluorescent.

| Compound | disintegration of the dye-amyloid fibers (AFM image) [1] | solubility [2] | average cross section of the dye-amyloid fiber (AFM) [3] | presence of the fluorophore on the insulin fibrils (fluorescence images) (insulin fibrils) | heights of the particles left after disintegration (AFM) [1] |
| --- | --- | --- | --- | --- | --- |
| Nc1c(/N=N/c2ccc(-c3ccc(/N=N/c4cc(S(=O)(=O)O)c5ccccc5c4N)cc3)cc2)cc(S(=O)(=O)O)c2ccccc12 [Congo red, sodium salt of benzidinediazo-bis-1-naphthylamine-4-sulfonic acid] | total disintegration of the amyloid fibrils into peptide monomers | water soluble; also recorded: solubility is better in organic solvents such as ethanol | same dimension as in the absence of CR | bound or intercalated evenly in the insulin fibrils |  |
| silver ions | total disintegration |  |  |  | 1-2 nm |
